Calls of active or inactive are those of the source. How the calls were made is not given here.
Each molecule was assayed on VEGF-stimulated ADSC/ECFC co-culture, nuclear area imaging (assay: nuclear area loss in endothelial-stromal co-culture, dose response, cell-based, VEGF stimulation, IC50 (AID 1117324)).

SMILES | IC50
CCCCCCCCCCCCCCCC(=O)OCC=C(C)C=CC=C(C)C=CC1=C(C)CCCC1(C)C | > 10 µM (inactive)
CC(COc1ccccc1)NN (stereo unspecified) | > 10 µM (inactive)
Oc1ccc(O)cc1 | > 10 µM (inactive)
CC(C)=CCC/C(C)=C/CC/C(C)=C/C(=O)OCC(=O)[C@@]1(O)CC[C@H]2[C@@H]3CCC4=CC(=O)C=C[C@]4(C)[C@H]3[C@@H](O)C[C@@]21C | > 10 µM (inactive)
COC(=O)C1=C(C)NC(C)=C(C(=O)O[C@@H]2CCCN(Cc3ccccc3)C2)[C@@H]1c1cccc([N+](=O)[O-])c1 | > 10 µM (inactive)
CCOC(=O)c1ccccc1C(=O)OCC | > 10 µM (inactive)
COc1ccc2cc3[n+](cc2c1OC)CCc1cc2c(cc1-3)OCO2 | > 10 µM (inactive)
Nc1nc(=O)n([C@@H]2O[C@H](CO)[C@@H](O)[C@@H]2F)cc1I | > 10 µM (inactive)
COc1cccc2c1C(=O)c1c(O)c3c(c(O)c1C2=O)C[C@@](O)(C(=O)CO)C[C@@H]3O[C@H]1C[C@H](N)[C@H](O[C@@H]2CCCCO2)[C@H](C)O1 | 0.995 µM
COC(=O)Nc1nc2ccc(C(=O)C3CC3)cc2[nH]1 | > 10 µM (inactive)
COC(=O)C1=C(C)NC(C)=C(C(=O)OCCN2CCN(C(c3ccccc3)c3ccccc3)CC2)C1c1cccc([N+](=O)[O-])c1 (stereo unspecified) | > 10 µM (inactive)
O=C(OCc1ccccc1)c1cccnc1 | > 10 µM (inactive)
O=C(O)c1ccc2[nH]cc(CCCCN3CC=C(c4ccccc4)CC3)c2c1 | > 10 µM (inactive)
Cc1c(C)c2c(c(C)c1OC(=O)CCC(=O)O)CC[C@@](C)(CCC[C@H](C)CCC[C@H](C)CCCC(C)C)O2 | > 10 µM (inactive)
Cc1cc(C2CCCCC2)n(O)c(=O)c1 | > 10 µM (inactive)
Cc1c(C)c2c(c(C)c1O)CCC(C)(COc1ccc(CC3SC(=O)NC3=O)cc1)O2 (stereo unspecified) | > 10 µM (inactive)
CC(C)(CO)[C@@H](O)C(=O)NCCC(=O)NCCSSCCNC(=O)CCNC(=O)[C@H](O)C(C)(C)CO | > 10 µM (inactive)
CCCCCCCCCCCCCCCC[N+](C)(C)CCN(Cc1ccc(OC)cc1)c1ncccn1 | > 10 µM (inactive)

SMILES | IC50
CCCCCCCCCCCCCCNCCO | 9.19 µM (inactive)
Cc1ccc(Nc2c(F)cccc2Cl)c(CC(=O)O)c1 | > 10 µM (inactive)
CC1=C(/C=C/C(C)=C/C=C/C(C)=C/C(=O)Nc2ccc(O)cc2)C(C)(C)CCC1 | 6.24 µM (inactive)
COc1c(C)c2c(c(O)c1C/C=C(\C)CCC(=O)OCCN1CCOCC1)C(=O)OC2 | > 10 µM (inactive)
CCCCC(CC)CN=C(N)NC(N)=NCCCCCCN=C(N)NC(N)=NCC(CC)CCCC (stereo unspecified) | > 10 µM (inactive)
Cc1c(O)cc2c(c1C)O[C@](C)(CCC[C@H](C)CCC[C@H](C)CCCC(C)C)CC2 | > 10 µM (inactive)
CCC(C(=O)OCCOCCN(CC)CC)c1ccccc1 (stereo unspecified) | > 10 µM (inactive)
Oc1ccc2[nH]cc(CCCCN3CC=C(c4ccccc4)CC3)c2c1 | > 10 µM (inactive)
CCc1cccc(N(C)C(N)=Nc2cccc3ccccc23)c1 | > 10 µM (inactive)
O=C(CCBr)N1CCN(C(=O)CCBr)CC1 | > 10 µM (inactive)
Clc1ccccc1C(c1ccccc1)(c1ccccc1)n1ccnc1 | > 10 µM (inactive)
O=c1[nH]sc2cc(Cl)ccc12 | 9.43 µM (inactive)
CCC(C)(C)C(=O)O[C@H]1C[C@@H](C)C=C2C=C[C@H](C)[C@H](CC[C@@H]3C[C@@H](O)CC(=O)O3)[C@H]21 | 5.13 µM (inactive)
CN[C@@H]1C[C@@H](c2ccc(Cl)c(Cl)c2)c2ccccc21 | > 10 µM (inactive)
S=c1nc[nH]c2nc[nH]c12 | > 10 µM (inactive)
CN(C)CCCN1c2ccccc2Sc2ccc(Cl)cc21 | > 10 µM (inactive)
COc1ccc(CCN2CCC(Nc3nc4ccccc4n3Cc3ccc(F)cc3)CC2)cc1 | > 10 µM (inactive)
C1CN(P2(N3CC3)=NP(N3CC3)(N3CC3)=NP(N3CC3)(N3CC3)=N2)CCO1 (stereo unspecified) | > 10 µM (inactive)
